Where “and” joins values, the source holds several entries; their conditions need not be identical. Identical values can stand only once. One block for each compound: values may come before it.
Tests used:
HEK293 cells [1] = assay: HEK293 viability assay (resazurin); assay type: cell-based, human; conditions: for IC50: HEK293, 72 hr, top concentration 40 μM, n = 3
Procedure: (§1) To assess cytotoxicity of compounds in dose response, a resazurin-based assay was utilized to determine cell viability. In brief, HEK293 cells were grown in DMEM medium (Life Technologies) containing 10% foetal calf serum (FCS; Gibco). Cells were trypsinized, counted and seeded at 2,000 cells per well in 45 μl media into TC-treated 384-well plates (Falcon) and left to adhere overnight at 37°C, 5% CO2 and 95% humidity.
(§2) Test compounds were prepared as described above, to give a top final test concentration of 40 μM, 0.4% DMSO. Plates were incubated for 72 hr at 37°C, 5% CO2 and 95% humidity, then the media was removed and replaced by 35 μl of 44 μM resazurin in DMEM without FCS. The plates were incubated for another 4-6 hr at 37°C, 5% CO2 and 95% humidity before reading on an EnVision® Plate Reader (PerkinElmer) using fluorescence excitation/emission settings of 530 nm/595 nm. Determination of the% growth compared to controls (40 μM puromycin as positive and 0.4% DMSO as negative control) was performed in Microsoft® Excel 2010. Statistical analysis including IC50 determination and graphical output was performed in GraphPad Prism® 5 using nonlinear regression variable slope curve fitting.

[2] = test system: P. falciparum CoA synthesis pathway; assay: Coenzyme A chemical rescue assay on P. falciparum; assay type: cell-based, Plasmodium falciparum; conditions: for CoA rescue (relative parasite number, % of untreated control): at 2 μM compound, with CoA supplementation; for IC50 shift upon CoA supplementation / antiplasmodial activity of control compounds upon CoA supplementation: eight-point dose response, n = 2; for IC50 shift upon CoA supplementation: fixed CoA (0.8-2 mM); for antiplasmodial activity of control compounds upon CoA supplementation: fixed CoA
Procedure: The well-established P. falciparum imaging assay was modified to allow assessment of chemical rescue with CoA. In brief, sorbitol (5% w/v) synchronization was performed twice, approximately 8 hr apart, on each synchronization day for two consecutive ring cycles, i.e., on day 1 and 3 of assay preparation. On day 2 the culture was split to approximately 2% trophozoite parasitaemia. On day 4 the culture was split to 1-1.5% trophozoite parasitaemia, which yielded approximately 8% ring parasitaemia after 48 hr (on day 5, i.e., the day of the assay set-up). Compound stocks (10 mM in 100% DMSO) were diluted 1:25 in sterile water, less than 24 hr prior to use. An additional 1:10 dilution was performed, resulting in a 1:250 overall compound dilution and a final DMSO concentration of 0.4%. For initial screening, compounds were tested at a final 2 μM concentration. […] The known P. falciparum CoA synthesis inhibitor, panthenol, was prepared as a 100 mM solution in 4% DMSO. The final concentration of the dose response curve of panthenol started at 10 mM and was serially diluted down to 100 nM. CoA was dissolved in water. […] Five μl of the 1:25 diluted test compound or control solutions were added to 384-well CellCarrier imaging plates (PerkinElmer). For the chemical rescue, 5 μl of CoA solution were added to ‘rescue’ wells and 5 μl water to all control and reference wells, respectively. Parasite culture was added to a final concentration of 1% parasitaemia (% P) and 0.3% haematocrit (% H). Plates were incubated for 72 hr at 37°C, 5% CO2 and 95% humidity. On day 8 the permeabilization and nuclear staining buffer was prepared in PBS containing 10 μg/ml saponin, 0.01% triton X, 5 mM EDTA (all: Sigma) and 0.5 μg/ml 4′,6-diamidino-2-phenylindole (DAPI; Life Technologies). The plates were left for at least 4 hr (typically overnight), before confocal imaging on an Opera™ High Content Screening Platform (PerkinElmer) at 405 nm excitation with a 20x water objective. Automated primary image analysis was performed concurrent with the imaging process, utilizing an Acapella® software (PerkinElmer) script to determine the number of parasites based on object size and fluorescence intensity. Determination of the % growth compared to controls (2 μM artemisinin as positive and 0.4% DMSO as negative control) was performed in Microsoft® Excel 2010. Statistical analysis including IC50 determination and graphical output was performed in GraphPad Prism® 5 using non-linear regression variable slope curve fitting. Cell-based high throughput screening (HTS) entails the distinct benefit that positive hits have already proven effective against the live parasite within its natural host erythrocyte environment. Modifications of an image-based assay were undertaken to identify compounds that interfere with the P. falciparum CoA pathway. The modification involved a chemical rescue approach adapted from a similar method used to investigate apicoplast function. The principle idea of the chemical rescue approach is that supplementation of an unbranched pathway’s end product – in this case CoA - should abrogate, or at least alleviate, negative growth effects of compounds inhibiting any step in the pathway. […] To identify new potential CoA synthesis inhibitors, the CoA chemical rescue approach was used to screen 144 compounds with known antiplasmodial activity identified by HTS in the Avery laboratory, in addition to the MMV malaria box. […] Compounds which rescued growth to at least 50% of control values and two-fold difference compared to treatment alone, were regarded as partial rescue hits.

[3] = test system: Plasmodium falciparum strain 3D7; assay: Plasmodium falciparum growth inhibition imaging assay; assay type: cell-based; conditions: for P. falciparum growth: 3D7, dose response; for P. falciparum growth / IC50: n = 3; for IC50: P. falciparum 3D7, 72 hr; for parasite growth inhibition: 2 μM
Procedure: In vitro parasite culture was maintained in RPMI with 10 mM Hepes (Life Technologies), 50 μg/ml hypoxanthine (Sigma) and 5 mg/ml AlbuMAX II® (Life Technologies). Human O + erythrocytes were obtained from the Australian Red Cross Blood Service (Agreement No: 13-04QLD-09). The parasites were maintained at 2-8% parasitaemia (% P) at 5% haematocrit (% H), incubated at 37°C, 5% CO2, 5%O2 and 90% N2 and 95% humidity. The well-established P. falciparum imaging assay was modified to allow assessment of chemical rescue with CoA. In brief, sorbitol (5% w/v) synchronization was performed twice, approximately 8 hr apart, on each synchronization day for two consecutive ring cycles, i.e., on day 1 and 3 of assay preparation. On day 2 the culture was split to approximately 2% trophozoite parasitaemia. On day 4 the culture was split to 1-1.5% trophozoite parasitaemia, which yielded approximately 8% ring parasitaemia after 48 hr (on day 5, i.e., the day of the assay set-up). Compound stocks (10 mM in 100% DMSO) were diluted 1:25 in sterile water, less than 24 hr prior to use. An additional 1:10 dilution was performed, resulting in a 1:250 overall compound dilution and a final DMSO concentration of 0.4%. For initial screening, compounds were tested at a final 2 μM concentration. For dose response curves of the active compounds, a semi-logarithmic serial dilution (containing three data points per log) was prepared at 40 μM top concentration for test compounds and 2 μM for the positive control, artemisinin. The known P. falciparum CoA synthesis inhibitor, panthenol, was prepared as a 100 mM solution in 4% DMSO. The final concentration of the dose response curve of panthenol started at 10 mM and was serially diluted down to 100 nM. CoA was dissolved in water. The final CoA concentration for optimal rescue results was determined for each CoA batch and ranged between 0.8-2 mM. Five μl of the 1:25 diluted test compound or control solutions were added to 384-well CellCarrier imaging plates (PerkinElmer). For the chemical rescue, 5 μl of CoA solution were added to ‘rescue’ wells and 5 μl water to all control and reference wells, respectively. Parasite culture was added to a final concentration of 1% parasitaemia (% P) and 0.3% haematocrit (% H). Plates were incubated for 72 hr at 37°C, 5% CO2 and 95% humidity. On day 8 the permeabilization and nuclear staining buffer was prepared in PBS containing 10 μg/ml saponin, 0.01% triton X, 5 mM EDTA (all: Sigma) and 0.5 μg/ml 4′,6-diamidino-2-phenylindole (DAPI; Life Technologies). The plates were left for at least 4 hr (typically overnight), before confocal imaging on an Opera™ High Content Screening Platform (PerkinElmer) at 405 nm excitation with a 20x water objective. Automated primary image analysis was performed concurrent with the imaging process, utilizing an Acapella® software (PerkinElmer) script to determine the number of parasites based on object size and fluorescence intensity. Determination of the % growth compared to controls (2 μM artemisinin as positive and 0.4% DMSO as negative control) was performed in Microsoft® Excel 2010. Statistical analysis including IC50 determination and graphical output was performed in GraphPad Prism® 5 using non-linear regression variable slope curve fitting.

HEK293 cells [4] = assay: CoA chemical rescue on HEK293 cells; assay type: cell-based, human; conditions: dose response with and without CoA, n = 2
Procedure: as §1
as §2, with “Plates” for “Test compounds were prepared as described above, to give a top final test concentration of 40 μM, 0.4% DMSO. Plates”

SMILES: Cc1ccc(C(C)C)c(OCc2nc3ccccc3n2C)c1 [Amb1541406]
IC50 (HEK293 cells [1]): > 40 µM
CoA rescue (relative parasite number, % of untreated control) [2]: 80% rescue at 2 μM
IC50 shift upon CoA supplementation [2]: 1.5 times
inhibition of P. falciparum 3D7 ([3]; at 40 μM): 85% inhibition at 40 μM

SMILES: COc1ccc(C[C@H](N)C(=O)N[C@H]2[C@@H](O)[C@H](n3cnc4c(N(C)C)ncnc43)O[C@@H]2CO)cc1 [puromycin, reference compound]
cytotoxic effect on HEK293 cells upon CoA addition (HEK293 cells [4]): no impact

SMILES: CC(C)(COP(=O)(O)OP(=O)(O)OC[C@H]1O[C@@H](n2cnc3c(N)ncnc32)[C@H](O)[C@@H]1OP(=O)(O)O)[C@@H](O)C(=O)NCCC(=O)NCCS [CoA, Coenzyme A]
P. falciparum growth [3]: not significantly altered

CoA rescue of growth inhibitory effect ([2]; CoA supplementation between 1 and 2 mM): fully rescued
SMILES: CC(C)(CO)C(O)C(=O)NCCCO (stereo not shown) [Panthenol, panthenol, reference compound]
cytotoxicity against HEK293 cells (HEK293 cells [1]; at 40 μM): cytotoxic effect
antiplasmodial activity of control compounds upon CoA supplementation [2]: counteracted by CoA
P. falciparum growth [3]: dose-dependent P. falciparum growth inhibitor
cytotoxic effect on HEK293 cells upon CoA addition (HEK293 cells [4]): completely negate

SMILES: CCc1nc(N)nc(N)c1-c1ccc(Cl)cc1 [pyrimethamine, reference compound]
antiplasmodial activity of control compounds upon CoA supplementation [2]: not reduced by CoA supplementation

SMILES: C[C@@H]1CC[C@H]2[C@@H](C)C(=O)O[C@@H]3O[C@@]4(C)CC[C@@H]1[C@]32OO4 [artemisinin, reference compound]
antiplasmodial activity of control compounds upon CoA supplementation [2]: not reduced by CoA supplementation

SMILES: CC(=O)C1=C(c2ccccc2)C(=O)c2ccccc2C1=O [Amb4317088]
IC50 (HEK293 cells [1]): 2.33 µM
CoA rescue (relative parasite number, % of untreated control) [2]: 80% rescue at 2 μM
IC50 shift upon CoA supplementation [2]: more than doubled
IC50 [3]: 1.23 µM
cytotoxic effect on HEK293 cells upon CoA addition (HEK293 cells [4]): reduced upon CoA addition

SMILES: OC1CCCCC1C1(NC(=S)Nc2ccccc2)CCCCC1 (stereo not shown) [Amb2368822/(MMV665980)]
IC50 (HEK293 cells [1]): > 40 µM
CoA rescue (relative parasite number, % of untreated control) [2]: 80% rescue at 2 μM
IC50 shift upon CoA supplementation [2]: more than doubled
parasite growth inhibition ([3]; MMV malaria box screen): 27%
parasite growth inhibition ([3]; original single dose screen, focussed compound library plate): 66%
parasite growth inhibition ([3]; retested twice from freshly dissolved solid): 98% and 90%
compound stability (inferred from lower activity of stored stock solution) ([3]; 100% DMSO stock at -20°C): potentially unstable
SI (selectivity index) ([3]; HEK293 IC50 value divided by P. falciparum IC50 value): > 6.3
IC50 [3]: 6.31 µM
IC50 ([3]; listed as Amb2368822): 6.3 µM

Reference: PMC4168161, “A novel approach for the discovery of chemically diverse anti-malarial compounds targeting the Plasmodium falciparum Coenzyme A synthesis pathway” (Malaria Journal, 2014)
